Results as given in patent US9233927B2 (TEVA PHARMACEUTICAL INDUSTRIES, LTD., priority 2013, dated 2016).
Read-outs that look alike come from different tables or passages of the source. One block for each molecule: values may come before it.

Assays:
[1] = Particle size distribution by Malvern laser diffraction (Mastersizer S); type: physicochemical; conditions: for D(0.9), PSD by Malvern / d(0.1), PSD by Malvern / d(0.5), PSD by Malvern: Modified Pilot Scale, 2.5 kg batch
Protocol: The particle size distributions were measured by Malvern Laser Diffraction, using the Mastersizer S model. Laser diffraction relies on the fact that diffraction angle of light is inversely proportional to particle size. Properties of particles are measured and interpreted as measurements of a sphere (a sphere being the only shape that can be described by one unique number). In addition, laser diffraction calculates a particle size distribution based around volume terms, thus eliminating particle count from the determination of particle size. The Mastersizer S model measures particles using a single technique and a single range setting.
D(0.1) is the particle size, in microns, below which 10% by volume distribution of the population is found. D(0.5) is the particle size, in microns, below which 50% by volume distribution of the population is found. D(0.9) is the particle size, in microns, below which 90% by volume distribution of the population is found.

[2] = prior art U.S. Pat. No. 7,884,208; cited from earlier work
[3] = prior art U.S. Pat. No. 7,884,208, cited from earlier work
[4] = test system: acute experimental autoimmune encephalomyelitis (aEAE) model; conditions: U.S. Pat. No. 6,077,851; cited from earlier work
[5] = Production scale crystallization
[6] = Laboratory scale crystallization, 25 g crude
[7] = starting material of pilot scale process

D(0.9), PSD by Malvern [1]: 33.8 um
d(0.1), PSD by Malvern [1]: 3.3 um
d(0.5), PSD by Malvern [1]: 12.9 um
Structure (SMILES): CCN(C(=O)c1c([O-])c2c(Cl)cccc2n(C)c1=O)c1ccccc1.[Na+] [Pilot Scale Batch A]

D(0.9), PSD by Malvern [1]: 33.9 um
d(0.1), PSD by Malvern [1]: 4.1 um
d(0.5), PSD by Malvern [1]: 13.5 um
Structure (SMILES): CCN(C(=O)c1c([O-])c2c(Cl)cccc2n(C)c1=O)c1ccccc1.[Na+] [Pilot Scale Batch B]

d(0.1) [1, 7]: 1-2 μ
d(0.5) [1, 7]: 5-11 μ
d(0.9) [1, 7]: 20-35 μ
Structure (SMILES): CCN(C(=O)c1c([O-])c2c(Cl)cccc2n(C)c1=O)c1ccccc1.[Na+] [crude laquinimod sodium]

Further lines, the molecule ahead of its results:

Structure (SMILES): CCN(C(=O)c1c([O-])c2c(Cl)cccc2n(C)c1=O)c1ccccc1.[Na+] [Batch C]
PSD D(0.1) [1, 5]: 4.1 μm
PSD D(0.5) [1, 5]: 14.0 μm
PSD D(0.9) [1, 5]: 32.0 μm

Structure (SMILES): CCN(C(=O)c1c([O-])c2c(Cl)cccc2n(C)c1=O)c1ccccc1.[Na+] [Batch E]
PSD D(0.1) [1, 5]: 2.5 μm
PSD D(0.5) [1, 5]: 9.5 μm
PSD D(0.9) [1, 5]: 21.0 μm

Structure (SMILES): CCN(C(=O)c1c([O-])c2c(Cl)cccc2n(C)c1=O)c1ccccc1.[Na+] [Example 13 of U.S. Pat. No. 7,884,208]
Tapped Density (in words) [2]: high

Structure (SMILES): CCN(C(=O)c1c([O-])c2c(Cl)cccc2n(C)c1=O)c1ccccc1.[Na+] [Example 14 of U.S. Pat. No. 7,884,208]
Tapped Density (in words) [2]: undesired
size of 10% or more of the total amount by volume of the particles [3]: less than 5 microns

Structure (SMILES): CCN(C(=O)c1c([O-])c2c(Cl)cccc2n(C)c1=O)c1ccccc1.[Na+] [Example 15 from U.S. Pat. No. 7,884,208]
D(0.9), PSD by Malvern ([3]; Laboratory Scale 25 g batch): 51.8 um
d(0.1), PSD by Malvern ([3]; Laboratory Scale 25 g batch): 6.1 um
d(0.5), PSD by Malvern ([3]; Laboratory Scale 25 g batch): 21.2 um

Structure (SMILES): CCN(C(=O)c1c([O-])c2c(Cl)cccc2n(C)c1=O)c1ccccc1.[Na+] [Laboratory Scale Batch A]
PSD D(0.1) [1, 6]: 2.3 μm

Structure (SMILES): CCN(C(=O)c1c([O-])c2c(Cl)cccc2n(C)c1=O)c1ccccc1.[Na+] [Laboratory Scale Batch B]
PSD D(0.1) [1, 6]: 2.6 μm

Structure (SMILES): CCN(C(=O)c1c(O)c2c(Cl)cccc2n(C)c1=O)c1ccccc1 [Laquinimod, N-ethyl-N-phenyl-1,2,-dihydro-4-hydroxy-5-chloro-1-methyl-2-oxoquinoline-3-carboxamide]
effectiveness in aEAE model [4]: effective
